Laboratory results taken from patent publication US9908870B2, “Crystalline form of a benzimidazole derivative and a preparation method thereof” (CJ HEALTHCARE CORPORATION, priority 2015, dated 2018).
Where “and” joins values, the source holds several entries; their conditions need not be identical. Equal values may be shown once.

How the values were obtained:
Type in all cases: physicochemical
[1] = Stability test under a photo-stressed condition
[2] = Crystal stability test under severe stability testing conditions
Procedure: Finally, a crystal stability test was performed to examine the stability of the crystalline form itself, and the results are shown in Table 4 below.

[3] = Static-electricity inducibility test (bulk density, tapped density, Carr's Index); conditions: for CI (Carr's Index): CI=100×(1−BD/TD), ≦30 value - good flowability
[4] = Hygroscopicity test
Description: Compounds with low hygroscopicity are advantageous in preparing formulations, and also are advantageous for storage. Additionally, compounds with high hygroscopicity are not advantageous in that they are difficult to formulate, and reproducible results may hardly be obtained even though formulations can be successfully achieved.

[5] = after 4 weeks, photo-stressed condition
[6] = after 4 weeks, photo-stressed condition (1,200,000 lux or higher and 200 W/m^2 or higher)
[7] = after 4 weeks at 60±2° C., 80±5% RH

Row | Content of impurities (related compounds) [1, 5] | Appearance [1, 6] | Appearance ([1]; initial stage) | Content of impurities (related compounds) ([1]; initial stage) | BD (bulk density) [3] | TD (tapped density) [3] | CI (Carr's Index) [3] | Hygroscopicity ([4]; 33% RH, after 4 weeks) | Hygroscopicity ([4]; 75% RH, after 4 weeks) | Hygroscopicity ([4]; 93% RH, after 4 weeks) | SMILES | also measured
1 | 0.10% | white | white | 0.10% | 0.34 g/mL and 0.32 g/mL | 0.45 g/mL | 24.44% and 28.89% | 0.17 | 0.20 | 0.28 | Cc1nc2c(O[C@H]3CCOc4cc(F)cc(F)c43)cc(C(=O)N(C)C)cc2[nH]1 [Crystalline form A, 4-[((4S)-5,7-difluoro-3,4-dihydro-2H-chromen-4-yl)oxy]-N,N,2-trimethyl-1H-benzimidazole-6-carboxamide] | Optical purity [1, 5]: 100%; Content of impurities (related compounds) ([1]; after 4 weeks, photo-stressed condition, listed as crystalline form A): ≤ 0.1%; Content of impurities (related compounds) ([1]; initial stage, listed as crystalline form A): ≤ 0.1%; Crystalline form [2, 7]: crystalline form A; DSC [2, 7]: 223 °C; Crystalline form ([2]; initial stage): crystalline form A; DSC ([2]; initial stage): 223 °C; Hygroscopicity values ([4]; stored at 33%, 75% and 93% relative humidity for 4 weeks): below 0.3
2 | 0.49% | yellow | white | 0.16% | 0.23 g/mL and 0.22 g/mL | 0.39 g/mL and 0.38 g/mL | 41.02% and 42.11% | 1.90 | 4.09 | 5.25 | Cc1nc2c(O[C@H]3CCOc4cc(F)cc(F)c43)cc(C(=O)N(C)C)cc2[nH]1 [Non-crystalline form, 4-[((4S)-5,7-difluoro-3,4-dihydro-2H-chromen-4-yl)oxy]-N,N,2-trimethyl-1H-benzimidazole-6-carboxamide] | Increase in content of related compounds ([1]; after 4-week photoexposure vs initial): ≥ 3 fold; Increase in content of optical isomers ([1]; after 4 weeks photo-stressed condition vs initial): 10 fold; Content of optical isomers [1, 5]: 0.47%; Content of optical isomers ([1]; initial stage): 0.04%; Content of impurities (related compounds) ([1]; initial stage, listed as non-crystalline form): 0.16%; Hygroscopicity ([4]; initial stage): 1.32
